Measured values taken from PubChem BioAssay (NCI).
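1) Cells in 96-well plates. 2) Compound, 48 h, 5 concentrations. 3) Linear interpolation between surrounding doses. 4) Unreached endpoint = highest concentration. TGI denotes the concentration required for complete inhibition of growth.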 Where a SMILES comes first, the peptide text is derived from it.

Experiments:
Test in all cases: NCI tumour cell line growth inhibition, 48 h
OVCAR-3 ovarian = test system: OVCAR-3 ovarian
NCI-H23 lung = test system: NCI-H23 lung
DU-145 prostate = test system: DU-145 prostate
CCRF-CEM leukemia = test system: CCRF-CEM leukemia
OVCAR-5 ovarian = test system: OVCAR-5 ovarian
MOLT-4 leukemia = test system: MOLT-4 leukemia
SN12C renal = test system: SN12C renal
PC-3 prostate = test system: PC-3 prostate
MDA-MB-435 = test system: MDA-MB-435
MCF7 breast = test system: MCF7 breast
M14 melanoma = test system: M14 melanoma
NCI-H226 lung = test system: NCI-H226 lung
SNB-19 CNS = test system: SNB-19 CNS
LOX IMVI melanoma = test system: LOX IMVI melanoma
786-0 renal = test system: 786-0 renal
RXF 393 renal = test system: RXF 393 renal

Structure (SMILES): NC(CCC(=O)NC(CSC(=O)N(O)c1ccc(Br)cc1)C(=O)NCC(=O)O)C(=O)O (stereo unspecified)
- TGI (OVCAR-3 ovarian): > 100 µM
- TGI (NCI-H23 lung): > 100 µM
- TGI (DU-145 prostate): > 50 µM
- TGI (CCRF-CEM leukemia): > 100 µM
- TGI (OVCAR-5 ovarian): > 100 µM
- TGI (MOLT-4 leukemia): > 100 µM
- TGI (SN12C renal): > 100 µM
- TGI (PC-3 prostate): > 50 µM
- TGI (MDA-MB-435): > 50 µM
- TGI (MCF7 breast): > 50 µM
- TGI (M14 melanoma): > 100 µM
- TGI (NCI-H226 lung): > 100 µM
- TGI (SNB-19 CNS): > 100 µM
- TGI (LOX IMVI melanoma): > 100 µM
- TGI (786-0 renal): > 100 µM
- TGI (RXF 393 renal): > 100 µM

Structure (SMILES): Clc1ccc(Cl)c(Nc2ccnc(SCc3ccccc3)n2)c1
- TGI (OVCAR-3 ovarian): > 100 µM
- TGI (NCI-H23 lung): > 100 µM
- TGI (DU-145 prostate): > 100 µM
- TGI (CCRF-CEM leukemia): > 100 µM
- TGI (OVCAR-5 ovarian): > 100 µM
- TGI (MOLT-4 leukemia): > 100 µM
- TGI (SN12C renal): > 100 µM
- TGI (PC-3 prostate): > 100 µM
- TGI (MDA-MB-435): > 100 µM
- TGI (MCF7 breast): > 100 µM
- TGI (M14 melanoma): > 100 µM
- TGI (SNB-19 CNS): > 100 µM
- TGI (LOX IMVI melanoma): > 100 µM
- TGI (786-0 renal): > 100 µM
- TGI (RXF 393 renal): 79.4 µM

Structure (SMILES): CCC(C)C(NC(=O)C(CCCCN)NC(=O)C(NC(=O)C(CCC(N)=O)NC(=O)C(N)CCCNC(=N)N)C(C)CC)C(=O)NC(Cc1c[nH]c2ccccc12)C(=O)NC(Cc1ccccc1)C(=O)NC(CCC(N)=O)C(=O)NC(CC(N)=O)C(=O)NC(CCCNC(=N)N)C(=O)NC(CCCNC(=N)N)C(=O)NC(CCSC)C(=O)NC(CCCCN)C(=O)NC(Cc1c[nH]c2ccccc12)C(=O)NC(CCCCN)C(=O)NC(CCCCN)C(=O)N1CCCC1C(=O)NC(C)C(=O)NC(CCCCN)C(=O)NC(CCCNC(=N)N)C(=O)NC(CCCCN)C(=O)NC(CC(C)C)C(=O)NC(Cc1ccccc1)C(=O)NCC(=O)O (stereo unspecified) (H-RQIKIWFQNRRMKWKKPAKRKLFG-OH; configuration not given here)
- TGI (OVCAR-3 ovarian): > 25 µM
- TGI (NCI-H23 lung): > 25 µM
- TGI (DU-145 prostate): > 25 µM
- TGI (CCRF-CEM leukemia): > 25 µM
- TGI (OVCAR-5 ovarian): > 25 µM
- TGI (MOLT-4 leukemia): > 25 µM
- TGI (SN12C renal): > 25 µM
- TGI (PC-3 prostate): > 25 µM
- TGI (MDA-MB-435): > 25 µM
- TGI (MCF7 breast): > 25 µM
- TGI (M14 melanoma): > 25 µM
- TGI (NCI-H226 lung): > 25 µM
- TGI (SNB-19 CNS): > 25 µM
- TGI (LOX IMVI melanoma): > 25 µM
- TGI (786-0 renal): > 25 µM
- TGI (RXF 393 renal): > 25 µM

Structure (SMILES): CCOC(=O)c1nc2c(Cl)c3ncccc3cc2[nH]c1=O
- TGI (OVCAR-3 ovarian): > 100 µM
- TGI (NCI-H23 lung): > 100 µM
- TGI (DU-145 prostate): > 100 µM
- TGI (CCRF-CEM leukemia): > 100 µM
- TGI (OVCAR-5 ovarian): > 100 µM
- TGI (MOLT-4 leukemia): 45.6 µM
- TGI (PC-3 prostate): > 100 µM
- TGI (MDA-MB-435): > 100 µM
- TGI (MCF7 breast): > 100 µM
- TGI (M14 melanoma): > 100 µM
- TGI (NCI-H226 lung): > 100 µM
- TGI (SNB-19 CNS): > 100 µM
- TGI (786-0 renal): > 100 µM
- TGI (RXF 393 renal): > 100 µM

Structure (SMILES): CCOC(=O)C1=C(Nc2cccc(OC)c2)OCC1=O
- TGI (NCI-H23 lung): > 100 µM
- TGI (DU-145 prostate): > 100 µM
- TGI (CCRF-CEM leukemia): > 100 µM
- TGI (MOLT-4 leukemia): > 100 µM
- TGI (PC-3 prostate): > 100 µM
- TGI (MDA-MB-435): > 100 µM
- TGI (MCF7 breast): > 100 µM
- TGI (M14 melanoma): > 100 µM
- TGI (NCI-H226 lung): > 100 µM
- TGI (SNB-19 CNS): > 100 µM
- TGI (LOX IMVI melanoma): > 100 µM
- TGI (786-0 renal): > 100 µM
- TGI (RXF 393 renal): > 100 µM

Structure (SMILES): O=C(NCCCNC(=O)c1ccc2c(O)c(O)ccc2c1)c1ccc2c(O)c(O)ccc2c1
- TGI (OVCAR-3 ovarian): 56.5 µM
- TGI (NCI-H23 lung): 52.8 µM
- TGI (DU-145 prostate): > 100 µM
- TGI (CCRF-CEM leukemia): > 100 µM
- TGI (OVCAR-5 ovarian): > 74.4 µM
- TGI (MOLT-4 leukemia): 52.3 µM
- TGI (SN12C renal): 52.2 µM
- TGI (PC-3 prostate): > 100 µM
- TGI (MDA-MB-435): 36.1 µM
- TGI (MCF7 breast): > 100 µM
- TGI (M14 melanoma): 78.8 µM
- TGI (NCI-H226 lung): > 100 µM
- TGI (SNB-19 CNS): > 70.9 µM
- TGI (LOX IMVI melanoma): > 100 µM
- TGI (786-0 renal): 57.9 µM
- TGI (RXF 393 renal): > 70 µM

Structure (SMILES): O=C1/C(=C\c2ccc([N+](=O)[O-])o2)SC2N=C(COc3ccc(Cl)cc3)NN12 (stereo unspecified)
- TGI (OVCAR-3 ovarian): 18.9 µM
- TGI (NCI-H23 lung): 35 µM
- TGI (DU-145 prostate): 27.3 µM
- TGI (CCRF-CEM leukemia): 5.97 µM
- TGI (OVCAR-5 ovarian): 47.5 µM
- TGI (MOLT-4 leukemia): > 100 µM
- TGI (SN12C renal): 29.6 µM
- TGI (PC-3 prostate): 24.4 µM
- TGI (MDA-MB-435): 16.3 µM
- TGI (MCF7 breast): 4.8 µM
- TGI (M14 melanoma): 13.2 µM
- TGI (NCI-H226 lung): 41.3 µM
- TGI (SNB-19 CNS): 31.1 µM
- TGI (LOX IMVI melanoma): 10.5 µM
- TGI (786-0 renal): 13.7 µM
- TGI (RXF 393 renal): 31.6 µM
